Measurements published in patent US11053260B2, “Tri-cycle compound and applications thereof” (FUJIAN COSUNTER PHARMACEUTICAL CO., LTD., priority 2017, dated 2021).

These molecules were tested on HBV (assay: HBV in vitro test in quantitative qPCR assay (HBV DNA content in HepG2.2.15 cells)). Settings: HBV DNA by qPCR, day 8, read-out: 50% inhibitory concentration (EC50) value of HBV.
Type: cell-based
Procedure: HBV In Vitro Test in Quantitative qPCR Assay
The HBV DNA content in HepG2.2.15 cells was determined by real-time quantitative qPCR assay (real time-qPCR), and the inhibitory effect of the compound on HBV was evaluated by the EC50 value of the compound.
2.1 Cell line: HepG2.2.15 cells
3.1 HepG2.2.15 cells (4×10^4 cells/well) were seeded into a 96-well plate and incubated overnight at 37° C. under 5% CO2.
3.2 On the 2nd day, the compound was diluted into 8 concentrations with 3-time gradient. The compounds with different concentrations were added into the culture wells in duplicate wells. The final concentration of DMSO in the culture medium was 1%. 1 μM GLS4 was used as a 100% inhibition control, and 1% DMSO was used as a 0% inhibition control.
3.3 On the 5th day, the culture medium was replaced with a fresh medium containing the compound.
3.4 On the 8th day, the culture medium in the culture well was collected, and the DNA was extracted with a high-throughput DNA purification kit (Qiagen-51162), of which specific procedure was referred to the product specification.
3.6 15 μL of the reaction mixture was added into each well of a 96-well PCR plate, followed by addition of 10 μL of sample DNA or HBV DNA standards into each well.
3.7 PCR reaction conditions: heating at 95° C. for 10 minutes; then denaturation at 95° C. for 15 seconds, extension at 60° C. for 1 minute, a total of 40 cycles.
3.8.1 Calculation of the percentage of inhibition: % Inh.=[1−(DNA copy number in sample−DNA copy number in 1 μM GLS4)/(DNA copy number in DMSO control−DNA copy number in 1 μM GLS4)]×100
3.8.2 Calculation of EC50: The 50% inhibitory concentration (EC50) value of the compound on HBV was calculated by GraphPad Prism software.

With `O=C(NCCOc1cccnc1)c1ccc2c(c1)NC(=O)c1cccn1S2(=O)=O` [WX297] the EC50 was ≤ 100 nM.

Same assay, conditions: Hepatitis B virus, HepG2.2.15, 192 h, HBV DNA by qPCR, day 8, read-out: 50% inhibitory concentration (EC50) value of HBV

First: O=C(NCc1ccc(C(F)(F)F)cc1)c1ccc2c(c1)NC(=O)c1cccn1S2(=O)=O [WX235]
Second: O=C(NCc1cnccc1C(F)(F)F)c1ccc2c(c1)NC(=O)c1cccn1S2(=O)=O [WX265]
The EC50 of the first is lower: 100 to 500 nM for the first, 1000 to 10000 nM for the second.

`O=C(NCCc1cccc(F)c1)c1ccc2c(c1)NC(=O)c1cccn1S2(=O)=O` [WX237] and `O=C(NCc1cccc(F)c1)c1ccc2c(c1)NC(=O)c1cccn1S2(=O)=O` [WX239] cannot be ordered by EC50: ≤ 100 nM for the first, ≤ 100 nM for the second.

`CC(C)c1ncc(CNC(=O)c2ccc3c(c2)NC(=O)c2cccn2S3(=O)=O)s1` [WX254] and `O=C(NCc1cnc(Cl)s1)c1ccc2c(c1)NC(=O)c1cccn1S2(=O)=O` [WX257] cannot be ordered by EC50: 100 to 500 nM for the first, ≤ 100 nM for the second.

`CC(C)c1ncc(CNC(=O)c2ccc3c(c2)NC(=O)c2cc(Cl)cn2S3(=O)=O)s1` [WX255] and `Cc1cc2n(c1)S(=O)(=O)c1ccc(C(=O)NCc3cnc(-c4ccc(C#N)cc4)s3)cc1NC2=O` [WX308] cannot be ordered by EC50: ≤ 100 nM for the first, ≤ 100 nM for the second.

`Cc1cccc2ncc(CNC(=O)c3ccc4c(c3)NC(=O)c3cccn3S4(=O)=O)n12` [WX258] and `Cc1ccc2ncc(CNC(=O)c3ccc4c(c3)NC(=O)c3cccn3S4(=O)=O)n2c1` [WX261] fall in the same range of EC50: 100 to 500 nM for the first, 100 to 500 nM for the second.

`Cc1ccsc1CNC(=O)c1ccc2c(c1)NC(=O)c1cccn1S2(=O)=O` [WX259] and `Cc1ccc(CNC(=O)c2ccc3c(c2)NC(=O)c2cccn2S3(=O)=O)s1` [WX262] fall in the same range of EC50: 100 to 500 nM for the first, 100 to 500 nM for the second.

Compared with `Cc1nc(C)c(CNC(=O)c2ccc3c(c2)NC(=O)c2cccn2S3(=O)=O)s1` [WX260], `Cc1nnc(CNC(=O)c2ccc3c(c2)NC(=O)c2cccn2S3(=O)=O)s1` [WX271] is higher in EC50: ≤ 100 nM for the first, 500 to 1000 nM for the second.

Compared with `Cn1nccc1CNC(=O)c1ccc2c(c1)NC(=O)c1cccn1S2(=O)=O` [WX263], `Cn1cc(CNC(=O)c2ccc3c(c2)NC(=O)c2cccn2S3(=O)=O)cn1` [WX272] is lower in EC50: 500 to 1000 nM for the first, 100 to 500 nM for the second.

`CN(Cc1nc2ccccc2s1)C(=O)c1ccc2c(c1)NC(=O)c1cccn1S2(=O)=O` [WX266] and `O=C(NCc1cnc2ccccn12)c1ccc2c(c1)NC(=O)c1cccn1S2(=O)=O` [WX267] fall in the same range of EC50: 100 to 500 nM for the first, 100 to 500 nM for the second.

`O=C(NCCC1CCCO1)c1ccc2c(c1)NC(=O)c1cc(F)cn1S2(=O)=O` (centres unmarked) [WX270] and `O=C(NCCC1CCCO1)c1ccc2c(c1)NC(=O)c1cc(Br)cn1S2(=O)=O` (centres unmarked) [WX311] cannot be ordered by EC50: 100 to 500 nM for the first, ≤ 100 nM for the second.

First: CN1CC(CNC(=O)c2ccc3c(c2)NC(=O)c2cccn2S3(=O)=O)OC1=O (centres unmarked) [WX275]
Second: O=C(NCC1CCOC1)c1ccc2c(c1)NC(=O)c1cccn1S2(=O)=O (centres unmarked) [WX280]
The EC50 of the first is higher: 500 to 1000 nM for the first, 100 to 500 nM for the second.

`O=C(NCCc1cccnc1)c1ccc2c(c1)NC(=O)c1cccn1S2(=O)=O` [WX278] and `O=C(NCCOc1cccnc1)c1ccc2c(c1)NC(=O)c1cccn1S2(=O)=O` [WX295] cannot be ordered by EC50: ≤ 100 nM for the first, 100 to 500 nM for the second.

`CC(C)(C)C(=O)N1CCC(CNC(=O)c2ccc3c(c2)NC(=O)c2cccn2S3(=O)=O)CC1` [WX279] and `CC(C)OC(=O)N1CCC(CNC(=O)c2ccc3c(c2)NC(=O)c2cccn2S3(=O)=O)CC1` [WX285] fall in the same range of EC50: 100 to 500 nM for the first, 100 to 500 nM for the second.

`O=C(NCC1CCN(C(=O)Oc2ccccc2)CC1)c1ccc2c(c1)NC(=O)c1cccn1S2(=O)=O` [WX286] and `CC(C)CC(=O)N1CCC(CNC(=O)c2ccc3c(c2)NC(=O)c2cccn2S3(=O)=O)CC1` [WX287] fall in the same range of EC50: 500 to 1000 nM for the first, 500 to 1000 nM for the second.

Compared with `O=C(NCC1CCC(F)(F)CC1)c1ccc2c(c1)NC(=O)c1cccn1S2(=O)=O` [WX288], `O=C(NCCOC1CCCC1)c1ccc2c(c1)NC(=O)c1cccn1S2(=O)=O` [WX292] is higher in EC50: 100 to 500 nM for the first, 500 to 1000 nM for the second.

`O=C(NCCc1ccc(F)c(F)c1)c1ccc2c(c1)NC(=O)c1cccn1S2(=O)=O` [WX293] and `O=C(NCCc1ccc(Cl)cc1)c1ccc2c(c1)NC(=O)c1cccn1S2(=O)=O` [WX301] cannot be ordered by EC50: ≤ 100 nM for the first, ≤ 100 nM for the second.

`N#Cc1ccc(-c2ncc(CNC(=O)c3ccc4c(c3)NC(=O)c3cccn3S4(=O)=O)s2)cc1` [WX298] and `O=C(NCCCc1ccc(F)cc1)c1ccc2c(c1)NC(=O)c1cccn1S2(=O)=O` [WX299] cannot be ordered by EC50: ≤ 100 nM for the first, 100 to 500 nM for the second.

`O=C(NCCc1cccc(Cl)c1)c1ccc2c(c1)NC(=O)c1cccn1S2(=O)=O` [WX300] and `Cc1cc2n(c1)S(=O)(=O)c1ccc(C(=O)NCCc3ccc(F)cc3)cc1NC2=O` [WX305] cannot be ordered by EC50: 100 to 500 nM for the first, ≤ 100 nM for the second.

`Cc1cc2n(c1)S(=O)(=O)c1ccc(C(=O)NCc3cccnc3)cc1NC2=O` [WX306] and `Cc1cc2n(c1)S(=O)(=O)c1ccc(C(=O)NCCC3CCCCO3)cc1NC2=O` (centres unmarked) [WX309] cannot be ordered by EC50: ≤ 100 nM for the first, ≤ 100 nM for the second.

`O=C(NCCC1CCCCO1)c1ccc2c(c1)NC(=O)c1cc(Br)cn1S2(=O)=O` (centres unmarked) [WX312] and `O=C(NCCC1CCCCCO1)c1ccc2c(c1)NC(=O)c1cccn1S2(=O)=O` (centres unmarked) [WX318] cannot be ordered by EC50: ≤ 100 nM for the first, ≤ 100 nM for the second.

`O=C(NCCC1COCCOC1)c1ccc2c(c1)NC(=O)c1cccn1S2(=O)=O` [WX321] and `CN1CCOC(CCNC(=O)c2ccc3c(c2)NC(=O)c2cccn2S3(=O)=O)C1` (centres unmarked) [WX326] cannot be ordered by EC50: 100 to 500 nM for the first, ≤ 100 nM for the second.

`CC(=O)N1CCOC(CCNC(=O)c2ccc3c(c2)NC(=O)c2cccn2S3(=O)=O)C1` (centres unmarked) [WX322] and `COC(=O)N1CCOC(CCNC(=O)c2ccc3c(c2)NC(=O)c2cccn2S3(=O)=O)C1` (centres unmarked) [WX323] cannot be ordered by EC50: ≤ 100 nM for the first, ≤ 100 nM for the second.

`O=C(NCCC1COCCO1)c1ccc2c(c1)NC(=O)c1cc(CC(F)(F)F)cn1S2(=O)=O` (centres unmarked) [WX328] and `CC(C)c1cc2n(c1)S(=O)(=O)c1ccc(C(=O)NCCC3COCCO3)cc1NC2=O` (centres unmarked) [WX338] cannot be ordered by EC50: ≤ 100 nM for the first, 100 to 500 nM for the second.
